Experimental data from ChEMBL document CHEMBL1201862, “PubChem BioAssay data set” (2004).
Activity calls are given as the source filed them. No stated cut-off is given here; in the data, actives have a measured IC50 and inactives only a lower limit.

These molecules were tested against Envelope glycoprotein gp160 (Human immunodeficiency virus 1, UniProt Q6QLK5) (assay: inhibitors of HIV fusion peptide binding, primary screen, biochemical, uHTS, fluorescence dequenching (AID 1986)).
Envelope glycoprotein gp160, sequence (Q6QLK5 whole entry, the tested form may be a part): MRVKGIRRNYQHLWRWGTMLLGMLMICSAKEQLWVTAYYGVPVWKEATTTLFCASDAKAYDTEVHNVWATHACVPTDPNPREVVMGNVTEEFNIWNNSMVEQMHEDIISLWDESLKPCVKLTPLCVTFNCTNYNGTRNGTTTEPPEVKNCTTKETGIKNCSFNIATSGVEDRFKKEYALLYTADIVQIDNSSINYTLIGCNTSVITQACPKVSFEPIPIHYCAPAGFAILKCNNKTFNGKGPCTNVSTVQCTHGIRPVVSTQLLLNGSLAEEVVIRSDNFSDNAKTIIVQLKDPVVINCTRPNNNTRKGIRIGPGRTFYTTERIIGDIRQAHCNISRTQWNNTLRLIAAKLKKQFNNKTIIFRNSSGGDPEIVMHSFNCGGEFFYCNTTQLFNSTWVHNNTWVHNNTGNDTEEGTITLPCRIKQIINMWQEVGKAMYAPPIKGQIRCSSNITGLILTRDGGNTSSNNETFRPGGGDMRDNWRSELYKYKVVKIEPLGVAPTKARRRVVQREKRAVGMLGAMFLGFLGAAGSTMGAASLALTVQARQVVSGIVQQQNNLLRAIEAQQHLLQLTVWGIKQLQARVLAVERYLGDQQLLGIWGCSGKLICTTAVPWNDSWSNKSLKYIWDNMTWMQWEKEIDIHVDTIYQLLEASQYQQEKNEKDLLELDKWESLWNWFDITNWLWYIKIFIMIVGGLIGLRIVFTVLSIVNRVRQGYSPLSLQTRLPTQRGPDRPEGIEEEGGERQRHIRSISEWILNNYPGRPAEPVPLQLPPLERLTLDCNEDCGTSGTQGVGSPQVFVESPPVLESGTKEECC
In the case of `O=C1NN(c2ccccc2)C(=O)/C1=C\c1cccc(OC(=O)c2cccs2)c1`, the IC50 is reported as 33.9 µM (active). In the case of `CC1(c2ccccc2)CC(C)(C)N2C(=O)/C(=C3\SC(=S)NC3=O)c3cccc1c32` (centres undefined), the IC50 is reported as 83.8 µM (active). For `Cc1cc(Cl)ccc1OC(C)C(=O)Nc1ccc(C(=O)Nc2ccccc2C(=O)O)cc1` (centres undefined), the IC50 was 13.1 µM (active). With `O=C(COc1ccc(Cl)cc1)Nc1cc(NC(=O)COc2ccc(Cl)cc2)cc(C(=O)O)c1` the IC50 was 26.4 µM (active).
